Our source for the inhibition of growth and inhibition values is ChEMBL document CHEMBL3045111, “Synthesis and herbicidal activities of novel 3-(substituted benzyloxy or phenoxy)-6-methyl-4-(3-trifluoromethylphenyl)pyridazine derivatives” (2012).

What all share (format): functional
Test [1] has as its system Amaranthus retroflexus. Kind of test: Pre-emergence herbicidal activity against Amaranthus retroflexus under greenhouse condition at 750 g /ha measured after 24 days by spray method. The note with it: 576 h, read-out: GI.
In test [2] the test system is Digitaria. Nature of the test: Pre-emergence herbicidal activity against Digitaria adscendens under greenhouse condition at 750 g /ha measured after 24 days by spray method. The note with it: in Digitaria adscendens, 576 h, read-out: GI.
Test [3] deals with Brassica rapa subsp. oleifera. Kind of test: Post-emergence herbicidal activity against one-leaf stage Brassica rapa subsp. oleifera under greenhouse condition at 750 g /ha measured after 24 days by spray method. The note with it: 576 h, read-out: GI.
Test [4] relates to Spirodela polyrhiza. Kind of test: Bleaching herbicidal activity in Spirodela polyrhiza fronds cultured in compound-containing in medium assessed as chlorophyll inhibition at 10 ug/ml after 7 days. The note with it: 168 h.
For test [5], the system named is Brassica rapa subsp. oleifera. Nature of the test: Pre-emergence herbicidal activity against Brassica rapa subsp. oleifera under greenhouse condition at 750 g /ha measured after 24 days by spray method. The note with it: 576 h, read-out: GI.
Test [6] has as its system Echinochloa crus-galli. Kind of test: Pre-emergence herbicidal activity against Echinochloa crus-galli (barnyard grass) under greenhouse condition at 750 g /ha measured after 24 days by spray method. Conditions: 576 h, read-out: GI.
Test [7] has as its system Amaranthus retroflexus. Kind of test: Post-emergence herbicidal activity against one-leaf stage of Amaranthus retroflexus under greenhouse condition at 750 g /ha measured after 24 days by spray method. The note with it: 576 h, read-out: GI.
Test [8] deals with Digitaria. Kind of test: Post-emergence herbicidal activity against one-leaf stage of Digitaria adscendens under greenhouse condition at 750 g /ha measured after 24 days by spray method. The note with it: in Digitaria adscendens, 576 h, read-out: GI.
The test system of test [9] is Spirodela polyrhiza. Kind of test: Bleaching herbicidal activity in Spirodela polyrhiza fronds cultured in compound-containing in medium assessed as chlorophyll inhibition at 1 ug/ml after 7 days. The note with it: 168 h.
The test system of test [10] is Echinochloa crus-galli. Kind of test: Post-emergence herbicidal activity against one-leaf stage of Echinochloa crus-galli (barnyard grass) under greenhouse condition at 750 g /ha measured after 24 days by spray method. The note with it: 576 h, read-out: GI.

`Cc1cc(-c2cccc(C(F)(F)F)c2)c(OCc2ccc(F)cc2)nn1`: the inhibition of growth at 750 g/ha with Amaranthus retroflexus [1] amounted to 8%; in the test with Digitaria [2], 0%; in test [3] it was 87%; in test [5] it was 8%; in the test with Echinochloa crus-galli [6], 24%; in the test on Amaranthus retroflexus [7], 41%. The results for the inhibition of growth at 750 g/ha with Digitaria [8] and in the test with Echinochloa crus-galli [10] were 56% and 2%, respectively. For the same molecule, the inhibition at 10 µg/mL with Spirodela polyrhiza [4] worked out at 87%. Also, in the test on Spirodela polyrhiza [9], the inhibition at 1 µg/mL stood at 76%.

With `Cc1cc(-c2cccc(C(F)(F)F)c2)c(Oc2cccc(Cl)c2)nn1`, the inhibition of growth at 750 g/ha with Amaranthus retroflexus [1] turned out to be 0%; in the test on Digitaria [2], 7%; in test [3], 100%; in test [5] it was 11%; in the test on Echinochloa crus-galli [6] it was 6%; in the test on Amaranthus retroflexus [7], 63%. Further, the inhibition of growth at 750 g/ha was 74% in the test with Digitaria [8] and 57% in the test on Echinochloa crus-galli [10]. Also, the inhibition at 10 µg/mL with Spirodela polyrhiza [4] came out at 72%. Also, in the test on Spirodela polyrhiza [9], the inhibition at 1 µg/mL worked out at 72%.

For `COc1cccc(COc2nnc(C)cc2-c2cccc(C(F)(F)F)c2)c1`, the inhibition of growth at 750 g/ha with Amaranthus retroflexus [1] came to 0%; with Digitaria [2] it was 0%; in [3], 9%; in test [5], 0%; in the test on Echinochloa crus-galli [6], 20%; with Amaranthus retroflexus [7] it was 12%. Besides, the inhibition of growth at 750 g/ha was found to be 0% in the test on Digitaria [8] and 5% in the test with Echinochloa crus-galli [10]. Moreover, in the test with Spirodela polyrhiza [4], the inhibition at 10 µg/mL came out at 23%. Besides, the inhibition at 1 µg/mL in the test on Spirodela polyrhiza [9] is 5%.

Turning to `COc1ccc(COc2nnc(C)cc2-c2cccc(C(F)(F)F)c2)cc1`, the inhibition of growth at 750 g/ha was 0% with Amaranthus retroflexus [1]; 48% in the test with Digitaria [2]; 13% in test [3]; 0% in test [5]; 39% in the test on Echinochloa crus-galli [6]; 16% in the test on Amaranthus retroflexus [7]. Further, the inhibition of growth at 750 g/ha in the test with Digitaria [8] was 20%; with Echinochloa crus-galli [10] it was 0%. The inhibition at 10 µg/mL in the test on Spirodela polyrhiza [4] was determined as 72%. Besides, in the test on Spirodela polyrhiza [9], the inhibition at 1 µg/mL was 0%.

`Cc1cc(C)cc(COc2nnc(C)cc2-c2cccc(C(F)(F)F)c2)c1`: the inhibition of growth at 750 g/ha was determined as 2% in the test on Amaranthus retroflexus [1]; 0% in the test with Digitaria [2]; 36% in test [3]; 0% in [5]; 1% in the test with Echinochloa crus-galli [6]; 10% in the test with Amaranthus retroflexus [7]. The inhibition of growth at 750 g/ha in the test with Digitaria [8] was found to be 24%; with Echinochloa crus-galli [10], 11%. In addition, the inhibition at 10 µg/mL with Spirodela polyrhiza [4] came out at 71%. The inhibition at 1 µg/mL in the test with Spirodela polyrhiza [9] is 0%.

For the molecule `Cc1cc(-c2cccc(C(F)(F)F)c2)c(OCc2cccc(Cl)c2)nn1`, the inhibition of growth at 750 g/ha was determined as 18% in the test with Amaranthus retroflexus [1]; 2% in the test with Digitaria [2]; 33% in test [3]; 0% in test [5]; 36% in the test with Echinochloa crus-galli [6]; 31% with Amaranthus retroflexus [7]. Besides, the inhibition of growth at 750 g/ha in the test with Digitaria [8] and in the test on Echinochloa crus-galli [10] was 0% throughout. Also, in the test with Spirodela polyrhiza [4], the inhibition at 10 µg/mL was determined as 45%. For the same molecule, the inhibition at 1 µg/mL in the test on Spirodela polyrhiza [9] worked out at 29%.

With `Cc1cc(-c2cccc(C(F)(F)F)c2)c(Oc2ccccc2Br)nn1`, the inhibition of growth at 750 g/ha in the test on Amaranthus retroflexus [1] was 0%; in the test with Digitaria [2] it was 7%; in test [3] it was 34%; in [5] it was 0%; with Echinochloa crus-galli [6] it was 0%; in the test with Amaranthus retroflexus [7], 0%. Also, the inhibition of growth at 750 g/ha in the test with Digitaria [8] turned out to be 21%; in the test on Echinochloa crus-galli [10], 30%. Besides, in the test on Spirodela polyrhiza [4], the inhibition at 10 µg/mL turned out to be 78%. In addition, in the test with Spirodela polyrhiza [9], the inhibition at 1 µg/mL is 0%.

In general, inhibition refers to the change of the read-out against control, counted positive when it falls.
